Like-named read-outs stand apart in the source and are kept apart here.
Legend:
[1] = target: human PRMT6 (Homo sapiens, UniProt Q96LA8); assay: biochemical
[2] = tested on: RKO cells, mono-methyl arginine; assay: RKO Methylation Assay (In Cell Western for mono-methyl arginine); assay type: cell-based; conditions: Homo sapiens
Source text: RKO adherent cells were purchased from ATCC (American Type Culture Collection), Manassas, Va., USA. DMEM/Glutamax medium, penicillin-streptomycin, heat inactivated fetal bovine serum, 0.05% trypsin and D-PBS were purchased from Life Technologies, Grand Island, N.Y., USA. Odyssey blocking buffer, 800CW goat anti-rabbit IgG (H+L) antibody, and Licor Odyssey infrared scanner were purchased from Licor Biosciences, Lincoln, Nebr., USA. Mono-methyl arginine antibody was purchased from Cell Signaling Technology, Danvers, Mass., USA. Methanol was purchased from VWR, Franklin, Mass., USA. 10% Tween 20 was purchased from KPL, Inc., Gaithersburg, Md., USA. DRAQ5 was purchased from Biostatus Limited, Leicestershire, UK.
RKO adherent cells were maintained in growth medium (DMEM/Glutamax medium supplemented with 10% v/v heat inactivated fetal bovine serum and 100 units/mL penicillin-streptomycin) and cultured at 37° C. under 5% CO2.
Cell Treatment, in Cell Western (ICW) for Detection of Mono-Methyl Arginine and DNA Content. […] Compound (100 nL) from a 96-well source plate was added directly to 384 well cell plate. Plates were incubated at 37° C., 5% CO2 for 72 hours. After three days of incubation, plates were brought to room temperature outside of the incubator for ten minutes and blotted on paper towels to remove cell media. 50 μL of ice cold 100% methanol was added directly to each well and incubated for 30 min at room temperature. After 30 min, plates were transferred to a Biotek EL406 plate washer and washed 2 times with 100 μL per well of wash buffer (1×PBS). Next 60 μL per well of Odyssey blocking buffer (Odyssey Buffer with 0.1% Tween 20 (v/v)) were added to each plate and incubated 1 hour at room temperature. Blocking buffer was removed and 20 μL per well of primary antibody was added (mono-methyl arginine diluted 1:200 in Odyssey buffer with 0.1% Tween 20 (v/v)) and plates were incubated overnight (16 hours) at 4° C. Plates were washed 5 times with 100 μL per well of wash buffer. […] The plates were washed 5 times with 100 μL per well wash buffer then 2 times with 100 μL per well of water. Plates were allowed to dry at room temperature then imaged on the Licor Odyssey machine which measures integrated intensity at 700 nm and 800 nm wavelengths. Both 700 and 800 channels were scanned.
Calculations: First, the ratio for each well was determined by:
Each plate included fourteen control wells of DMSO only treatment (minimum activation) as well as fourteen control wells for maximum activation treated with 20 μM of a reference compound. The average of the ratio values for each control type was calculated and used to determine the percent activation for each test well in the plate. Reference compound was serially diluted three-fold in DMSO for a total of nine test concentrations, beginning at 20 μM. Percent activation was determined and EC30 curves were generated using triplicate wells per concentration of compound.

[3] = biochemical evaluation, peptide substrate, read-out: PRMT6 IC50
[4] = single experiment or average of multiple experiments, read-out: PRMT6 biochemical evaluation (numerical)
[5] = In Cell Western EC30, RKO cells, 72 hours, single experiment or average of multiple experiments, read-out: RGG ICW
[6] = In Cell Western, RKO cells, 72 hours, read-out: RGG ICW EC30
[7] = RKO, 72 h, read-out: RGG ICW EC30

human PRMT6, sequence (Q96LA8 with tags, fused parts or gaps): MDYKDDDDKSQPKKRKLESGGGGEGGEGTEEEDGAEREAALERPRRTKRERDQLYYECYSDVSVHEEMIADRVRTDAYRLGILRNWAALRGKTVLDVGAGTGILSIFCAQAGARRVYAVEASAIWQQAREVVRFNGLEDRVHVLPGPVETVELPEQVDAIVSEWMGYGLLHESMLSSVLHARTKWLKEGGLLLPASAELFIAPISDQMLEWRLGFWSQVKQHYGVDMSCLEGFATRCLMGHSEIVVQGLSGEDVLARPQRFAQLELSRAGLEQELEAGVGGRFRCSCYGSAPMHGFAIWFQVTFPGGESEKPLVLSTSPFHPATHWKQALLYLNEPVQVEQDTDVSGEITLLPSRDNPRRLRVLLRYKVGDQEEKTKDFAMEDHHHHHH

Structure (SMILES)	IC50 [1, 3] [nM]	IC50 [1, 4] [nM]	EC30 [2, 5] [nM]	EC30 [2, 6] [nM]	EC30 ([2]; RKO, 72 h, read-out: RGG ICW) [nM]	EC30 [2, 7] [nM]
CNCCN(C)Cc1nn(C)c2ccc(OCC(C)C)cc12 [Compound 3, N^1-((5-iso-butoxy-1-methyl-1H-indazol-3-yl)methyl)-N^1,N^2-dimethylethane-1,2-diamine]	101 to 1000	514	14000	> 12000		
CNCCN(C)Cc1n[nH]c2ccc(OCc3ccn(C)n3)cc12 [Compound 20]	< 100	37.4			710	< 3000
CNCCN(C)Cc1n[nH]c2ccc(OC3CCOCC3)cc12 [Compound 29, N^1,N^2-dimethyl-N^1-((5-((tetrahydro-2H-pyran-4-yl)oxy)-1H-indazol-3-yl)methyl)ethane-1,2-diamine]	101 to 1000	178			5040	3010 to 12000
CNCCN(C)Cc1c2cc(OCc3ccc(C#N)cc3)ccc2nn1C(C)C [Compound 34]	3010 to 10000	14.9			> 20000	> 12000
CNCCN(C)Cc1nn(C2CCN(C(C)=O)CC2)c2ccc(OCc3ccc(C#N)cc3)cc12 [Compound 38]	101 to 1000	1870	> 20000	> 12000		
CNCCN(C)Cc1n[nH]c2ccc(Oc3cccc(Cl)c3)cc12 [Compound 27, N^1-((5-(3-chlorophenoxy)-1H-indazol-3-yl)methyl)-N^1,N^2-dimethylethane-1,2-diamine]	101 to 1000	53.7			4470	3010 to 12000
CNCCN(C)Cc1n[nH]c2ccc(OCCC(C)C)cc12 [Compound 8]	< 100	56	930	< 3000		
CNCCN(C)Cc1n[nH]c2ccc(OCCc3ccccc3)cc12 [Compound 7]	< 100	6.78	791	< 3000		
CNCCN(C)Cc1n[nH]c2ccc(OC3CCOC3)cc12 (stereo not drawn) [Compound 25, N^1,N^2-dimethyl-N^1-((5-((tetrahydrofuran-3-yl)oxy)-1H-indazol-3-yl)methyl)ethane-1,2-diamine]	< 100	5.05	2660	< 3000		

Source: patent publication US9765035B2 (priority 2013, dated 2017)
